# Results published in patent US20220395438A1, “TOOTH WHITENING COMPOSITION” (Universitat Autonoma de Barcelona, priority 2019, published 2022).
# Assay: Tooth whitening treatments at 20 minutes according to 2^2 factorial design (colorimetric ΔE)
# Design: species or system bovine
# Details: 8 specimens per treatment
structure (smiles),measurement,setting,value
"O=S([O-])S(=O)(=O)[O-].[Na+].[Na+] [Comparative 2, sodium metabisulfite]","increase in the whiteness of the tooth, ΔE ± standard deviation",3 minutes of treatment,7.3 ± 1.5
same,"increase in the whiteness of the tooth, ΔE ± standard deviation","3 minutes of treatment, listed as MBS",7.3
same,"increase in the whiteness of the tooth, ΔE ± standard deviation",6 minutes of treatment,12.9 ± 0.8
same,"increase in the whiteness of the tooth, ΔE ± standard deviation",9 minutes of treatment,14.7 ± 1.8
same,"increase in the whiteness of the tooth, ΔE ± standard deviation",14 minutes of treatment,14.8 ± 1.7
same,"increase in the whiteness of the tooth, ΔE ± standard deviation",20 minutes of treatment,16.2 ± 1.7
